Experimental findings from patent US7977107B2, “Oral detection test for cannabinoid use” (LabOne, Inc., priority 2004, dated 2011) are described below.

Data set [1] is described as follows: Detection of THCA in oral fluid samples of test subjects by GC/MS/MS. It is filed as in vivo, human. The note with it: Group C: 26 samples screened and confirmed positive for Δ^9-THC. From the text: Oral fluid samples from 223 test subjects were collected with a commercially available INTERCEPT® oral fluid collection device manufactured by OraSure Technologies, Inc. (Bethlehem, Pa.) in accordance with the manufacturer's instructions. This device comprises an absorbent collection pad (e.g., cotton or a sponge) affixed to the end of a handle. The collection pad of the collection device is placed in the mouth of the subject until the collection pad is substantially saturated with oral fluid, which typically takes about four minutes.
The oral fluid samples were obtained from two drug testing facilities. The samples were divided into three groups: negative screens (A), positive screens (B), and positive confirms (C). Group A consisted of 144 oral fluid samples that had been tested by ELISA for the parent compound Δ^9-THC and were negative for this test (cutoff 4.0 ng/ml Δ^9-THC, cross reactive with THCA at 0.33 ng/ml, no confirmation with GC/MS/MS performed). […] Finally, Group C consisted of 26 oral fluid samples that screened positive by ELISA for the parent compound Δ^9-THC and were also confirmed positive for Δ^9-THC by GC/MS/MS. Each of these samples from Group A, B, and C was then tested for the presence or absence of THCA by GC/MS/MS in accordance with the present invention. […]
Quantitation was performed using the internal standard area of the 495-peak ratio with the 492-peak. […]

Data set [2] can be described thus: Δ^9-THC metabolism in oral fluid (incubation at about 37° C., THCA assayed versus time). It is filed as in vitro ADME. As to conditions: 10 ng/ml Δ^9-THC in certified negative oral fluid, several hours, triplicate. Here is the method: In this example, Δ^9-THC metabolism in oral fluid was investigated. Δ^9-THC was incubated at about 37° C. in oral fluid for several hours. THCA levels were assayed versus time to ensure metabolism of Δ^9-THC to THCA or THCA-glucuronide in the oral cavity or mucosa was not a possible source of the measured result. This was performed in triplicate at 10 ng/ml using certified negative oral fluid samples. Δ^9-THC standard material of known purity was used.
Δ^9-THC metabolism to THCA was not detected during this experiment. Further, it has been reported that Δ^9-THC metabolism occurs in the liver. See Watanabe, et al., A cytochrome P450 isozyme having aldehyde oxygenase activity plays a major role in metabolizing cannabinoids by mouse hepatic microsomes, Biochem Pharmacol., Vol. 46 No. 3, at pp. 405-11 (August 1993).

In the case of 11-nor-Δ^9-THC carboxylic acid [THCA], the “THCA level in oral fluid (highest)” value in data set [1] is at most 142 pg/mL.
Take `CCCCCc1cc(O)c2c(c1)OC(C)(C)[C@@H]1CCC(C)=C[C@@H]21` [Δ^9-THC, Δ^9-tetrahydrocannabinol]: in data set [2], the “Δ^9-THC metabolism to THCA” value is “not detected”.
